Results on 8 compounds are retold here after patent US6562806B1, “Pyrrolobenzodiazepines” (Spirogen Limited, priority 1998, dated 2003).

Like-named read-outs stand apart in the source and are kept apart here. A value given as a limit tells only on which side of the number the result lay.

Series [1] in a line: UVA (365 nm) cleavage of photolabile NVOC group monitored by HPLC. In kind it is physicochemical. The protocol: This experiment involved the irradiation of compound 11, see example 3, in DMF at a concentration of 1 mM using a Stratagene UVA Crosslinker(365 nm). Small aliquots (100 μL) were removed at 30 minutes, 1 hour, 2 hours and 3 hours and the cleavageof the photolabile NVOC group was monitored by HPLC, using a Waters C4, 300 angstrom reversed phase column and a mobile phase of 50% methanol/50% water. Compound 11 has a retention time of 11.25 minutes and upon radiation produced a new peak with a retention time of 8.58 minutes. Authentic benzyl DC-81 has an identical retention time of 8.58 minutes. Complete conversion is achieved by 2 hours of irradiation at 365 nm under the conditions employed.

The test system of another series is K562 cells. Kind of series: MTT growth inhibition of K562 cells by irradiated aliquots. In kind it is cell-based, human. The protocol: An MTT assay was used to evaluate the ability of aliquots of the activated analogues, which were removed at time intervals, to inhibit the growth of chronic human histiocytic leukaemia K562 cells in culture. Following treatment of cells with a range of drug doses, cells were transferred to 96-well microtitre plates, 10^4 cells per well, 8 wells per sample. Plates were incubated at 37° C. in a humidified atmosphere containing 5% CO2. The assay is based on the ability of viable cells to reduce a yellow soluble tetrazolium salt 3-(4,5-dimethylthiazolyl)-2,5-diphenyltetrazolium bromide (MTT), to an insoluble purple formazan precipitate. Following incubation of the plates for 4 days (to allow control cells to increase 10-fold in number), 20 μL of a 5 mg/mL solution of MTT in phosphate-buffered saline was added to each well and the plates were incubated for a further 5 hours. The plates were then centrifuged for 5 minutes at 300 g and the bulk of the medium was removed from the cell pellet. DMSO (200 μL) was added to each well, and the samples agitated to ensure complete mixing. The optical density was then measured at a wavelength of 550 nm on a Titertek Multiscan ELISA plate reader and expressed as a percentage of the control optical density. For each curve, an IC50 value was read as the dose required to reduce the final optical density to 50% of the control value.

Another series concerns SW1116 cells. In words: Nitroreductase-activation cytotoxicity, SRB assay, SW1116 cells. In kind it is cell-based, human. The procedure: (§1) Compound 7, synthesized according to example 1, was evaluated in two different cell lines, namely SW1116 and LS174T. Both SW1116 and LS174T are human adenocarcinoma colonic cell lines, which were grown at Charing Cross hospital. The cells, at a concentration of 2500 cells/ml, were plated in 96-well microtitre plates, and were incubated at 37° C. for 1 hour with different concentrations of the prodrug, in the presence or absence of E. coli nitroreductase-monoclonal antibody conjugate in phosphate buffer saline (available from Sigma), and NADH (the co-factor necessary for enzyme function) in DMSO. The cells were then washed and incubated for a further 3 days at 37° C. At the end of this period, the cells were fixed (TCA) and stained. The concentration of the remaining viable cells adhering to the plates was quantified by a sulforhodamine B (SRB) dye. The control sets of cells treated with the prodrug alone were used in order to evaluate the cytotoxicity of the compound prior to enzymatic activation.
In general terms: The SRB assay estimates cell density from bound dye.

The test system of series [2] is SW1116 and LS174T cell lines. In words: Nitroreductase-activation cytotoxicity, SRB assay, 'same cell lines' (value not assigned to one line). In kind it is cell-based, human. The protocol: as §1
For another series, the system named is LS174T cells. Kind of series: Nitroreductase-activation cytotoxicity, SRB assay, LS174T cells. In kind it is cell-based, human. The protocol: as §1
Another series has as its system SKOV3. Kind of series: Ovarian cell line cytotoxicity, SRB, 96 hours. The settings on record: Homo sapiens, SK-OV-3; SKOV3, 96 hours. It is filed as cell-based. The procedure: (§2) Compounds 52 (UP 2073) and the comparative compound 55b (UP2090) were evaluated for their cytotoxic activity in ovarian cell lines by Dr Lloyd R. Kelland's group at The Institute of Cancer Research, Sutton, UK. The five cell lines investigated were SKOV-3, A2780/A2780cisR and CH1/CH1cisR (cisR denotes that the cell line is resistant to cisplatin).
(§3) Single viable cells were seeded in growth medium (160 μL) in 96-well microtitre plates and allowed to attach overnight. The test compounds were then dissolved in DMSO (to give 20 mM drug concentrations) immediately prior to adding the cells in quadruplicate wells. The final drug concentrations in the wells ranged from 100 μM to 2.5 nM as follows:100, 25, 10, 2.5, 1 μM, 250, 100, 25, 10, 2.5 nM (drugs were diluted in growth medium and then 40 μL added to the existing well volume of 160 μL to give final concentrations as above). After 96 hours, the medium was removed and the remaining cells fixed by exposure to 10% trichloroacetic acid on ice for 30 minutes. The wells were then washed 3-4 times with tap water, air dried overnight and treated with 100 μL of sulphorhodamine B (0.4%) dissolved in 1% acetic acid. Staining was allowed to continue for 10-15 minutes, then the wells were washed 3-4 times with 1% acetic acid, air dried and then added to Tris base (100 μL of 10 mM). Plates were then shaken and absorbance readings at […] were determined using a plate reader. The IC50 values were calculated from plots of concentration versus percentage absorbance (compared with 8 untreated wells).

Another series relates to A2780. Kind of series: Ovarian cell line cytotoxicity, SRB, 96 hours. In kind it is cell-based. Conditions: Homo sapiens; A2780, 96 hours. The protocol:
as §2, §3

For another series, the system named is A2780cisR. In words: Ovarian cell line cytotoxicity, SRB, 96 hours. In kind it is cell-based. The protocol: as §2, §3
The next series concerns CH1cisR. Kind of series: Ovarian cell line cytotoxicity, SRB, 96 hours. In kind it is cell-based. The protocol:
as §2, §3

A further series concerns CH1. In words: Ovarian cell line cytotoxicity, SRB, 96 hours. Conditions: Homo sapiens; CH1, 96 hours. It is filed as cell-based. The procedure:
as §2, §3

The mark [3] stands for this setting: LS174T, E. coli nitroreductase-antibody conjugate + NADH, read-out: IC50 in the presence of the enzyme and co-factor.
[4] abbreviates: irradiation time 0 hours, DMF at 1 mM initial drug concentration.
The mark [5] stands for this setting: irradiation time 0 hours, DMF at 10 mM initial drug concentration.

Turning to “1,1′-[[(Propane-1,3-diyl)dioxy]bis[[2-(2,3-dimethoxy-5-nitrobenzyloxycarboxamido)]bis[(11aS)-7-methoxy-1,2,3,11a-tetrahydro-11-hydroxy-5H-pyrrolo[1,2-c][1,4]benzodiazepine-5-one [Compound 32]”, the “irradiation time to almost complete conversion” value in series [1] (HPLC data (not shown)) is at most 2 h. The “irradiation time to complete conversion” value in series [1] (HPLC data (not shown), dimer prodrug experiments) is at most 5 h. Also, the IC50 – broadly, the concentration that inhibits the measured activity by half – with K562 cells (dimer series (FIG. 9), irradiation time 0 hours, footnote DMF at 1 mM, FIG. 9 legend methanol) was determined as 4.5 µM; in the series with K562 cells (dimer series (FIG. 9), irradiation time 0.5 hours, footnote DMF at 1 mM, FIG. 9 legend methanol), 1.9 µM; in the series with K562 cells (dimer series (FIG. 9), irradiation time 1.0 hours, footnote DMF at 1 mM, FIG. 9 legend methanol), 1.75 µM; in the series with K562 cells (dimer series (FIG. 9), irradiation time 2.0 hours, footnote DMF at 1 mM, FIG. 9 legend methanol), 1.25 µM; in the series with K562 cells (dimer series (FIG. 9), irradiation time 5.0 hours, footnote DMF at 1 mM, FIG. 9 legend methanol), 0.85 µM.

Take `COc1cc2c(cc1OCc1ccccc1)N(C(=O)OCc1ccc([N+](=O)[O-])cc1)C(O)[C@@H]1CCCN1C2=O` (stereo partly drawn) [Compound 7, (11aS)-8-benzyloxy-7-methoxy-1,2,3,10,11,11a-hexahydro-11-hydroxy-10-(p-nitrobenzyloxy)carboxy-5H-pyrrolo[2,1-c][1,4]-benzodiazepine-5-one]: the IC50 with SW1116 cells (SW1116, E. coli nitroreductase-antibody conjugate + NADH, read-out: IC50 in the presence of the enzyme and co-factor) lay within 1 to 5 µM; in series [2] (after addition of enzyme conjugate and NADH, cell line not specified, read-out: IC50 of the nitroreductase-activated prodrug), 1 to 5 µM; with LS174T cells (setting [3]), 1 to 5 µM. Besides, the “toxicity of the prodrug alone” value in the series on SW1116 cells (SW1116 cells, no enzyme, concentrations of up to 500 μM) is “essentially non-toxic”; in the series with LS174T cells (LS174T cells, no enzyme, concentrations higher than 100 μM), “slight toxicity”. Moreover, the “difference between IC50 of parent drug and nitroreductase-activated prodrug” value in [2] (parent benzyl DC-81 vs activated prodrug) was 20-100 fold.

For the compound `COc1cc(COC(=O)N2c3cc(OCc4ccccc4)c(OC)cc3C(=O)N3CCC[C@H]3C2O)c([N+](=O)[O-])cc1OC` (stereo partly drawn) [Compound 11, (11aS)-8-benzyloxy-7-methoxy-1,2,3,10,11,11a-hexahydro-11-hydroxy-10-(21-nitro-4′,5′-dimethoxybenzyloxy)carboxy-5H-pyrrolo[2,1-c][1,4]-benzodiazepine-5-one], the “irradiation time to complete conversion” value in [1] (DMF, 1 mM, 365 nm, HPLC) is at most 2 h. In addition, the IC50 with K562 cells (setting [4]) came out at 47.5 µM; with K562 cells (setting [5]) it was 48.5 µM; with K562 cells (irradiation time 0.5 hours, DMF at 1 mM initial drug concentration), 0.98 µM; in the series on K562 cells (irradiation time 0.5 hours, DMF at 10 mM initial drug concentration), 4.33 µM; in the series on K562 cells (irradiation time 0.5 hours, FIG. 8: DMF at 1 mM, text says methanol) it was 4.5 µM; in the series with K562 cells (irradiation time 1.0 hours, DMF at 1 mM initial drug concentration), 0.6 µM. Besides, the IC50 in the series with K562 cells (irradiation time 1.0 hours, DMF at 10 mM initial drug concentration) was 2.17 µM; in the series on K562 cells (irradiation time 1.0 hours, FIG. 8: DMF at 1 mM, text says methanol), 4 µM; with K562 cells (irradiation time 2.0 hours, DMF at 1 mM initial drug concentration), 0.6 µM; in the series on K562 cells (irradiation time 2.0 hours, DMF at 10 mM initial drug concentration), 1.75 µM; with K562 cells (irradiation time 2.0 hours, FIG. 8: DMF at 1 mM, text says methanol), 3.2 µM.

For `CC=C1C[C@H]2C(O)N(C(=O)OCc3ccc([N+](=O)[O-])cc3)c3cc(OCc4ccccc4)c(OC)cc3C(=O)N2C1` (stereo partly drawn) [Compound 24, (11aS)-8-benzyloxy-7-methoxy-1,3,10,11,11a-tetrahydro-2-ethylidene-11-hydroxy-10-(p-nitrobenzyloxy)carboxy-5H-pyrrolo[2,1-c][1,4]-benzodiazepine-5-one], the IC50 is 6.4 µM in series [2] (Homo sapiens, after addition of enzyme conjugate and NADH, cell line not specified, read-out: IC50 of the nitroreductase-activated prodrug); 86.2 µM in [2] (Homo sapiens, no enzyme, average of two experiments, cell line not specified, read-out: IC50 of prodrug alone). Besides, in series [2] (IC50 without / with enzyme conjugate and NADH), the activation factor result was “approximately 13.5”.

As for `COc1cc2c(cc1OCCCOc1cc3c(cc1OC)C(=O)N1CCC[C@H]1C(O)N3C(=O)OCc1ccc([N+](=O)[O-])cc1)N(C(=O)OCc1ccc([N+](=O)[O-])cc1)C(O)[C@@H]1CCCN1C2=O` (some centres unmarked) [Compound 30], the IC50 in the series on LS174T cells (LS174T, no enzyme, average of two measurements, read-out: IC50 of prodrug alone) amounted to 215 µM; in the series with LS174T cells (setting [3]), 13.7 µM. In addition, in the series on LS174T cells (LS174T, IC50 without / with enzyme and co-factor), the activation factor is 15-16 fold.

Turning to `COc1cc2c(cc1OCCCOc1cc3c(cc1OC)C(=O)N1CCC[C@H]1C=N3)N=C[C@@H]1CCCN1C2=O` [DSB-120, reference compound], the IC50 in the series with K562 cells (Homo sapiens, K562, light or radiation study, dimer series (FIG. 9), irradiation time 0 hours, footnote DMF at 1 mM, FIG. 9 legend methanol) was 0.55 µM; in the series with LS174T cells (Homo sapiens, LS174T, read-out: cytotoxicity (IC50) of the parent agent) it was 0.0005 µM.

Regarding `COc1cc2c(cc1OC)C(=O)N1CCC[C@H]1C=N2` [UP2025], the IC50 was 1.7 µM with SKOV3; 0.064 µM in the series with A2780; 0.155 µM in the series on A2780cisR (Homo sapiens, A2780cisR (cisplatin resistant), 96 hours); 0.11 µM with CH1cisR (Homo sapiens, CH1cisR (cisplatin resistant), 96 hours); 0.082 µM in the series with CH1. Also, the entries for the “RF (resistance factor)” value with A2780cisR (A2780cisR divided by A2780) and in the series on CH1cisR (CH1cisR divided by CH1) were 2.4 and 1.3, respectively.

Take `COc1cc2c(cc1OCc1ccccc1)N=C[C@@H]1CCCN1C2=O` [benzyl DC-81, reference compound]: the IC50 in series [2] (same cell lines, same conditions, read-out: IC50 of the parent drug) came to 0.008 µM; in the series on K562 cells (setting [4]), 0.5 µM; in the series with K562 cells (setting [5]), 0.5 µM; with K562 cells (irradiation time 0 hours, FIG. 8: DMF at 1 mM, text says methanol) it was 0.5 µM.
